From patent publication US12404285B2, “KRAS G12D proteolysis targeting chimeras” (PAQ Therapeutics Inc., priority 2022, dated 2025)

Biological target: T1, KRAS (G12D)-HiBit in AsPc-1-KRAS (G12D)-HiBit-KI cell (Homo sapiens, UniProt P01116, G12D)
T1 construct: host or cells: AsPc-1-KRAS (G12D)-HiBit-KI cells (knock-in line)
Assay: G12D HiBit assay
Type: cell-based
Conditions: 24 hours compound treatment, absolute DC50, read-out: Average PHA DC50
How it was run: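 Degradation of endogenous HiBiT-tagged KRAS G12D in AsPc-1 knock-in cells read after 24 h compound exposure (0.015-300 nM, 3-fold steps) by Nano-Glo HiBiT lytic luminescence. Signal normalised to DMSO-only cells; absolute DC50 derived by curve fitting.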

T1 sequence (P01116 1-188 isoform P01116-2 G12D): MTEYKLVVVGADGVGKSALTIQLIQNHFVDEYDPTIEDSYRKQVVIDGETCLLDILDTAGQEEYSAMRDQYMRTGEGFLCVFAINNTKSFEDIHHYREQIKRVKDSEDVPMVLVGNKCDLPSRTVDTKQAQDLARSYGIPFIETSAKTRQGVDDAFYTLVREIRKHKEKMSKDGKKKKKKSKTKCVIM

| Structure (SMILES) | DC50 [nM] |
| --- | --- |
| C#Cc1c(F)ccc2cccc(-c3ncc4c(N5CC6CCC(C5)N6)nc(OC[C@@]56CCCN5[C@H](COC(=O)N5CC[C@H](CN7CCC(c8ccc9c(c8)n(C)c(=O)n9C8CCC(=O)NC8=O)CC7)C5)CC6)nc4c3F)c12 (some centres unmarked) [Compound 80] | < 100 |
| CCc1c(F)ccc2cc(O)cc(-c3ncc4c(N5CCCC6(CCO6)C5)nc(OC[C@@]56CCCN5[C@H](COC(=O)N5CCC(OCCCc7cccc8c7n(C)c(=O)n8C7CCC(=O)NC7=O)CC5)CC6)nc4c3F)c12 (some centres unmarked) [Compound 34] | < 100 |
| C#Cc1c(F)ccc2cccc(-c3ncc4c(N5CC6CCC(C5)N6)nc(OC[C@@]56CCCN5[C@H](COC(=O)N5CCC(CCn7cc(-c8cccc9c8n(C)c(=O)n9C8CCC(=O)NC8=O)nn7)CC5)CC6)nc4c3F)c12 (stereo partly drawn) [Compound 97, [(3S,8S)-8-[[4-(3,8-Diazabicyclo[3.2.1]octan-3-yl)-7-(8-ethynyl-7-fluoro-1-naphthyl)-8-fluoro-pyrido[4,3-d]pyrimidin-2-yl]oxymethyl]-1,2,3,5,6,7-hexahydropyrrolizin-3-yl]methyl4-[2-[4-[1-(2,6-dioxo-3-piperidyl)-3-methyl-2-oxo-benzimidazol-4-yl]triazol-1-yl]ethyl]piperidine-1-carboxylate] | < 100 |
| C#Cc1c(F)ccc2cccc(-c3ncc4c(N5CC6CCC(C5)N6)nc(OC[C@@]56CCCN5[C@H](COC(=O)N5CC7(CC(CCc8cccc9c8n(C)c(=O)n9C8CCC(=O)NC8=O)C7)C5)CC6)nc4c3F)c12 (stereo partly drawn) [Compound 61, [(3S,8S)-8-[[4-(3,8-diazabicyclo[3.2.1]octan-3-yl)-7-(8-ethynyl-7-fluoro-1-naphthyl)-8-fluoro-pyrido[4,3-d]pyrimidin-2-yl]oxymethyl]-1,2,3,5,6,7-hexahydropyrrolizin-3-yl]methyl 6-[2-[1-(2,6-dioxo-3-piperidyl)-3-methyl-2-oxo-benzimidazol-4-yl]ethyl]-2-azaspiro[3.3]heptane-2-carboxylate] | 100 to 300 |
| C#Cc1c(F)ccc2cccc(-c3ncc4c(N5CC6CCC(C5)N6)nc(OC[C@@]56CCCN5[C@H](COC(=O)N5CC(CN7CCC(Oc8cccc9c8n(C)c(=O)n9C8CCC(=O)NC8=O)CC7)C5)CC6)nc4c3F)c12 (some centres unmarked) [Compound 78] | < 100 |
| C#Cc1c(F)ccc2cccc(-c3ncc4c(N5CC6CCC(C5)N6)nc(OC[C@@]56CCCN5[C@H](COC(=O)NCCCC(=O)N5CCC(c7ccc8c(c7)n(C)c(=O)n8C7CCC(=O)NC7=O)CC5)CC6)nc4c3F)c12 (some centres unmarked) [Compound 45] | ≥ 300 |
| C#Cc1c(F)ccc2cccc(-c3ncc4c(N5CC6CCC(C5)N6)nc(OC[C@@]56CCCN5[C@H](COC(=O)N5CCC(OCC#CC#Cc7cccc8c7n(C)c(=O)n8C7CCC(=O)NC7=O)CC5)CC6)nc4c3F)c12 (stereo partly drawn) [Compound 93, [(3S,8S)-8-[[4-(3,8-Diazabicyclo[3.2.1]octan-3-yl)-7-(8-ethynyl-7-fluoro-1-naphthyl)-8-fluoro-pyrido[4,3-d]pyrimidin-2-yl]oxymethyl]-1,2,3,5,6,7-hexahydropyrrolizin-3-yl]methyl4-[5-[1-(2,6-dioxo-3-piperidyl)-3-methyl-2-oxo-benzimidazol-4-yl]penta-2,4-diynoxy]piperidine-1-carboxylate] | < 100 |
| C#Cc1c(F)ccc2cccc(-c3ncc4c(N5CC6CCC(C5)N6)nc(OC[C@@]56CCCN5[C@H](COC(=O)NCCCN(C)C5CCN(c7cccc8c7n(C)c(=O)n8C7CCC(=O)NC7=O)CC5)CC6)nc4c3F)c12 (stereo partly drawn) [Compound 109, [(3S,8S)-8-[[4-(3,8-Diazabicyclo[3.2.1]octan-3-yl)-7-(8-ethynyl-7-fluoro-1-naphthyl)-8-fluoro-pyrido[4,3-d]pyrimidin-2-yl]oxymethyl]-1,2,3,5,6,7-hexahydropyrrolizin-3-yl]methylN-[3-[[1-[1-(2,6-dioxo-3-piperidyl)-3-methyl-2-oxo-benzimidazol-4-yl]-4-piperidyl]-methyl-amino]propyl]carbamate] | ≥ 300 |
| C#Cc1c(F)ccc2cccc(-c3ncc4c(N5CC6CCC(C5)N6)nc(OC[C@@]56CCCN5[C@H](COC(=O)NC[C@@H]5CN(CCCc7cccc8c7n(C)c(=O)n8C7CCC(=O)NC7=O)CCO5)CC6)nc4c3F)c12 (stereo partly drawn) [Compound 126, [(3S,8S)-8-[[4-(3,8-Diazabicyclo[3.2.1]octan-3-yl)-7-(8-ethynyl-7-fluoro-1-naphthyl)-8-fluoro-pyrido[4,3-d]pyrimidin-2-yl]oxymethyl]-1,2,3,5,6,7-hexahydropyrrolizin-3-yl]methyl N-[[(2 R)-4-[3-[1-(2,6-dioxo-3-piperidyl)-3-methyl-2-oxo-benzimidazol-4-yl]propyl]morpholin-2-yl]methyl]carbamate] | ≥ 300 |
| C#Cc1c(F)ccc2cccc(-c3ncc4c(N5CC6CCC(C5)N6)nc(OC[C@@]56CCCN5[C@H](COC(=O)N5CCC(OCCCc7ccc8c(c7)n(C)c(=O)n8C7CCC(=O)NC7=O)CC5)CC6)nc4c3F)c12 (stereo partly drawn) [Compound 136, [(3S,8S)-8-[[4-(3,8-Diazabicyclo[3.2.1]octan-3-yl)-7-(8-ethynyl-7-fluoro-1-naphthyl)-8-fluoro-pyrido[4,3-d]pyrimidin-2-yl]oxymethyl]-1,2,3,5,6,7-hexahydropyrrolizin-3-yl]methyl 4-[3-[1-(2,6-dioxo-3-piperidyl)-3-methyl-2-oxo-benzimidazol-5-yl]propoxy]piperidine-1-carboxylate] | < 100 |
| C#Cc1c(F)ccc2cccc(-c3ncc4c(N5CC6CCC(C5)N6)nc(OC[C@@]56CCCN5[C@H](COC(=O)N5CCC(CN7CC(Oc8cccc9c8n(C)c(=O)n9C8CCC(=O)NC8=O)C7)CC5)CC6)nc4c3F)c12 (stereo partly drawn) [Compound 100, [(3S,8S)-8-[[4-(3,8-diazabicyclo[3.2.1]octan-3-yl)-7-(8-ethynyl-7-fluoro-1-naphthyl)-8-fluoro-pyrido[4,3-d]pyrimidin-2-yl]oxymethyl]-1,2,3,5,6,7-hexahydropyrrolizin-3-yl]methyl 4-[[3-[1-(2,6-dioxo-3-piperidyl)-3-methyl-2-oxo-benzimidazol-4-yl]oxyazetidin-1-yl]methyl]piperidine-1-carboxylate] | < 100 |
| C#Cc1c(F)ccc2cccc(-c3ncc4c(N5CC6CCC(C5)N6)nc(OC[C@@]56CCCN5[C@H](COC(=O)N5CCC(OCC7CCN(Cc8ccc9c(c8)n(C)c(=O)n9C8CCC(=O)NC8=O)CC7)CC5)CC6)nc4c3F)c12 (some centres unmarked) [Compound 71] | < 100 |
| C#Cc1c(F)ccc2cccc(-c3ncc4c(N5CC6CCC(C5)N6)nc(OC[C@@]56CCCN5[C@H](COC(=O)N5CCC(C7CCN(c8ccc9c(c8)n(C)c(=O)n9C8CCC(=O)NC8=O)CC7)CC5)CC6)nc4c3F)c12 (some centres unmarked) [Compound 70] | ≥ 300 |
| C#Cc1c(F)ccc2cccc(-c3ncc4c(N5CC6CCC(C5)N6)nc(OC[C@@]56CCCN5[C@H](COC(=O)N5CCC7(CCC(CCc8cccc9c8n(C)c(=O)n9C8CCC(=O)NC8=O)CC7)CC5)CC6)nc4c3F)c12 (stereo partly drawn) [Compound 60, [(3S,8S)-8-[[4-(3,8-Diazabicyclo[3.2.1]octan-3-yl)-7-(8-ethynyl-7-fluoro-1-naphthyl)-8-fluoro-pyrido[4,3-d]pyrimidin-2-yl]oxymethyl]-1,2,3,5,6,7-hexahydropyrrolizin-3-yl]methyl 9-[2-[1-(2,6-dioxo-3-piperidyl)-3-methyl-2-oxo-benzimidazol-4-yl]ethyl]-3-azaspiro[5.5]undecane-3-carboxylate] | 100 to 300 |
| C#Cc1c(F)ccc2cccc(-c3ncc4c(N5CC6CCC(C5)N6)nc(OC[C@@]56CCCN5[C@H](COC(=O)N5CCN(C7CCN(Cc8cccc9c8n(C)c(=O)n9C8CCC(=O)NC8=O)CC7)CC5)CC6)nc4c3F)c12 (stereo partly drawn) [Compound 64, [(3S,8S)-8-[[4-(3,8-Diazabicyclo[3.2.1]octan-3-yl)-7-(8-ethynyl-7-fluoro-1-naphthyl)-8-fluoro-pyrido[4,3-d]pyrimidin-2-yl]oxymethyl]-1,2,3,5,6,7-hexahydropyrrolizin-3-yl]methyl 4-[1-[[1-(2,6-dioxo-3-piperidyl)-3-methyl-2-oxo-benzimidazol-4-yl]methyl]-4-piperidyl]piperazine-1-carboxylate] | < 100 |
| C#Cc1c(F)ccc2cccc(-c3ncc4c(N5CC6CCC(C5)N6)nc(OC[C@@]56CCCN5[C@H](COC(=O)N5CCC(COC7CN(Cc8ccc9c(c8)n(C)c(=O)n9C8CCC(=O)NC8=O)C7)CC5)CC6)nc4c3F)c12 (some centres unmarked) [Compound 73] | < 100 |
| C#Cc1c(F)ccc2cccc(-c3ncc4c(N5CC6CCC(C5)N6)nc(OC[C@@]56CCCN5[C@H](COC(=O)N5CCC(CCC7CCN(Cc8cccc9c8n(C)c(=O)n9C8CCC(=O)NC8=O)CC7)CC5)CC6)nc4c3F)c12 (some centres unmarked) [Compound 49] | ≥ 300 |
| C#Cc1c(F)ccc2cccc(-c3ncc4c(N5CC6CCC(C5)N6)nc(OC[C@@]56CCCN5[C@H](COC(=O)N5CCC(OCCCCCCc7cccc8c7n(C)c(=O)n8C7CCC(=O)NC7=O)CC5)CC6)nc4c3F)c12 (stereo partly drawn) [Compound 58, [(3S,8S)-8-[[4-(3,8-Diazabicyclo[3.2.1]octan-3-yl)-7-(8-ethynyl-7-fluoro-1-naphthyl)-8-fluoro-pyrido[4,3-d]pyrimidin-2-yl]oxymethyl]-1,2,3,5,6,7-hexahydropyrrolizin-3-yl]methyl 4-[6-[1-(2,6-dioxo-3-piperidyl)-3-methyl-2-oxo-benzimidazol-4-yl]hexoxy]piperidine-1-carboxylate] | < 100 |
| C#Cc1c(F)ccc2cccc(-c3ncc4c(N5CC6CCC(C5)N6)nc(OC[C@@]56CCCN5[C@H](COC(=O)N5CC7(CCN(c8cccc9c8n(C)c(=O)n9C8CCC(=O)NC8=O)CC7)C5)CC6)nc4c3F)c12 (stereo partly drawn) [Compound 121, [(3S,8S)-8-[[4-(3,8-Diazabicyclo[3.2.1]octan-3-yl)-7-(8-ethynyl-7-fluoro-1-naphthyl)-8-fluoro-pyrido[4,3-d]pyrimidin-2-yl]oxymethyl]-1,2,3,5,6,7-hexahydropyrrolizin-3-yl]methyl 7-[1-(2,6-dioxo-3-piperidyl)-3-methyl-2-oxo-benzimidazol-4-yl]-2,7-diazaspiro[3.5]nonane-2-carboxylate] | ≥ 300 |
| C#Cc1c(F)ccc2cccc(-c3ncc4c(N5CC6CCC(C5)N6)nc(OC[C@@]56CCCN5[C@H](COC(=O)N5CCC(CCCCc7cccc8c7n(C)c(=O)n8C7CCC(=O)NC7=O)CC5)CC6)nc4c3F)c12 (some centres unmarked) [Compound 41] | ≥ 300 |
